Test results taken from ChEMBL document CHEMBL1132911, “Cytotoxic halogenoacrylic derivatives of distamycin A” (Bioorg Med Chem Lett, 2000).

How the values were obtained:
L1210 [1] = assay: In vitro cytotoxicity was measured after 4 hr of exposure against L1210 murine leukemia cells; format: functional, Mus musculus
Mus musculus [2] = assay: In vivo antileukemic activity against L1210 murine leukemia cell after intravenous administration in mice expressed as optimal (non toxic) dose; format: functional
Mus musculus [3] = assay: In vivo antileukemic activity against L1210 murine leukemia in mice after iv administration of compound expressed as T/C ie median survival time of treated versus untreated mice (10); format: functional
L1210 [4] = assay: In vitro cytotoxicity was measured after 48 hr of exposure against L1210 murine leukemia cells; format: functional, cell-based; conditions: Mus musculus, L1210, 48 h
Mus musculus [5] = assay: In vivo antileukemic activity against L1210 murine leukemia after intravenous administration in mice expressed as optimal (non toxic) dose; format: functional

SMILES	IPol (L1210 [1])	OD (Mus musculus [2])	T/C (Mus musculus [3])	IC50 (L1210 [4])	further results
C=C(Cl)C(=O)Nc1cc(C(=O)Nc2cc(C(=O)Nc3cc(C(=O)NCCC(=N)N)n(C)c3)n(C)c2)n(C)c1.Cl	1.47 µM	12.5 mg/kg	117%	–	–
C=C(Cl)C(=O)Nc1cc(C(=O)Nc2cc(C(=O)Nc3cc(C(=O)Nc4cc(C(=O)NCCC(=N)N)n(C)c4)n(C)c3)n(C)c2)n(C)c1.Cl	–	1.56 mg/kg	133%	3.8 nM	–
C=C(Br)C(=O)Nc1cc(C(=O)Nc2cc(C(=O)Nc3cc(C(=O)NCCC(=N)N)n(C)c3)n(C)c2)n(C)c1.Cl	0.1035 µM	–	100%	–	OD (Mus musculus [5]): 12.5 mg/kg
C=C(F)C(=O)Nc1cc(C(=O)Nc2cc(C(=O)Nc3cc(C(=O)Nc4cc(C(=O)NCCC(=N)N)n(C)c4)n(C)c3)n(C)c2)n(C)c1	–	–	–	> 700 nM	–
C=C(Br)C(=O)Nc1cc(C(=O)NCCC(=N)N)n(C)c1	–	–	–	> 13000 nM	–
C=CC(=O)Nc1cc(C(=O)Nc2cc(C(=O)Nc3cc(C(=O)NCCC(=N)N)n(C)c3)n(C)c2)n(C)c1.Cl	>50 µM	–	–	–	–
C=C(Br)C(=O)Nc1cc(C(=O)Nc2cc(C(=O)Nc3cc(C(=O)Nc4cc(C(=O)Nc5cc(C(=O)NCCC(=N)N)n(C)c5)n(C)c4)n(C)c3)n(C)c2)n(C)c1.Cl	–	0.78 mg/kg	167%	23 nM	–
C=C(F)C(=O)Nc1cc(C(=O)Nc2cc(C(=O)Nc3cc(C(=O)NCCC(=N)N)n(C)c3)n(C)c2)n(C)c1	–	–	–	> 800 nM	–
Cl.Cn1cc(NC(=O)c2cc(NC(=O)c3cc(NC(=O)/C=C\Cl)cn3C)cn2C)cc1C(=O)NCCC(=N)N	>50 µM	–	–	–	–
C=C(Br)C(=O)Nc1cc(C(=O)Nc2cc(C(=O)NCCC(=N)N)n(C)c2)n(C)c1	–	–	–	> 1300 nM	–
Cl.Cn1cc(NC(=O)c2cc(NC(=O)c3cc(NC(=O)/C=C/Cl)cn3C)cn2C)cc1C(=O)NCCC(=N)N	>100 µM	–	–	–	–
C=C(Br)CNc1cc(C(=O)Nc2cc(C(=O)Nc3cc(C(=O)NCCC(=N)N)n(C)c3)n(C)c2)n(C)c1	–	–	–	> 1600 nM	–
C=C(Br)C(=O)Nc1cc(C(=O)Nc2cc(C(=O)Nc3cc(C(=O)Nc4cc(C(=O)NCCC(=N)N)n(C)c4)n(C)c3)n(C)c2)n(C)c1.Cl	–	1.56 mg/kg	200%	–	–
